US20230220327A1, “SERPIN PRODUCTION” (SOCIETE DES PRODUITS NESTLE S.A., priority 2019, published 2023)
“Also recorded” adds a separate entry of the source. No end group written: not given here.

Key:
[1] = tested on: B. longum NCC 2705; test: serpin protein levels (ELISA) in B. longum NCC 2705 grown on different carbohydrates; type: cell-based, Bifidobacterium longum subsp longum
Experimental: B. longum strain CNCM 1-2618 (NCC 2705) was grown in Biolector (growth conditions—anaerobic, 37 00) in MRS+5 mM L-cysteine (MRSc) base without sugar, to which different carbohydrates were added.
(§1) 48-well microtiter plate with pH sensor and dissolved oxygen (DO) sensor were used to culture the strains in Biolector (m2p-labs Aachen, Germany). It was continuously shaken to prevent bacteria aggregation for 8 h. Cultures were harvested by centrifugation and supernatant was removed. Pellet was resuspended in PBS supplemented with halt protease inhibitor (Sigma) and lysed using glassbeads. Lysate containing both soluble and insoluble material was then collected.
(§2) Total protein content was measured using Pierce BCA kit (Thermofisher) and serpin protein concentration was determined using ELISA.
B. longum NCC 2705 was cultured in Biolector (as described in Example 1) in a base of MRSc without sugar, with the addition of different glucose & galactose ratios, to a final concentration of 1%. Cultures were collected after 18 h of growth and analyzed for total & serpin protein levels (as described in Example 1).
B. longum NCC 2705 was grown on an MRSc base without sugar, with addition of different commercially available galactooligosaccharides (GOS) at different concentrations. […] Obtained pellets were analyzed for total and serpin protein content (see Example 1). […]

[2] = tested on: B. longum subsp. longum strains; test: serpin protein levels (ELISA) in B. longum subsp. longum strains; type: cell-based, Bifidobacterium longum subsp longum
Experimental: as §1, §2
The serpin encoding gene and its surrounding is highly conserved within the B. longum subsp. longum species. Strains of B. longum subsp. longum were selected to represent the entire span of the genetic phylogenetic tree (Table 2). […] Obtained pellets were further analyzed for total and serpin protein content (see example 1).
Serpin is furthermore conserved within a restricted number of Bifidobacteria species (Turroni, F. et al. Characterization of the serpin-encoding gene of Bifidobacterium breve 210B. Appl Environ Microbiol 76, 3206-3219, doi:10.1128/AEM.02938-09 (2010)). […] Obtained pellets were further analyzed for total and serpin protein content (see example 1).

[3] = tested on: B. longum subsp. longum strains; test: growth of B. longum subsp. longum strains on galactose as sole carbohydrate source; type: cell-based, Bifidobacterium longum subsp longum; conditions: 1% galactose, MRSc base without sugar
Experimental: The serpin encoding gene and its surrounding is highly conserved within the B. longum subsp. longum species. Strains of B. longum subsp. longum were selected to represent the entire span of the genetic phylogenetic tree (Table 2). All strains were cultured in Biolector (according to example 1) in a MRSc base without sugar, to which 1% glucose, 1% galactose or a mix of glucose & galactose (respectively 0.2 & 0.8%) was added. Cultures were grown for 18 h and harvested. Obtained pellets were further analyzed for total and serpin protein content (see example 1).

[4] = tested on: B. longum subsp. suis ATCC 27533 (T); test: serpin protein levels (ELISA) in B. longum subsp suis; type: cell-based; conditions: 1% galactose, 18 h (FIG. 7)
Experimental: as §1, §2
(§3) Serpin is furthermore conserved within a restricted number of Bifidobacteria species (Turroni, F. et al. Characterization of the serpin-encoding gene of Bifidobacterium breve 210B. Appl Environ Microbiol 76, 3206-3219, doi:10.1128/AEM.02938-09 (2010)). Strains belonging to these species (Table 3) were cultured in Biolector (see example 1) in a MRSc base without sugar, to which 1% glucose, 1% galactose was added. […] Cultures were grown for 18 h and harvested. Obtained pellets were further analyzed for total and serpin protein content (see example 1).

[5] = tested on: B. breve ATCC 15700 (T); test: serpin protein levels (ELISA) in B. breve; type: cell-based; conditions: 18 h (FIG. 7)
Experimental: as §1, §2, §3

[6] = tested on: B. longum subsp. infantis ATCC 15697 (T); test: serpin protein levels (ELISA) in B. longum subsp infantis; type: cell-based; conditions: 1% galactose, 18 h (FIG. 7)
Experimental: as §1, §2, §3

[7] = tested on: various forms of elastases and proteinase; conditions: Ying & Simon, 1993; cited from earlier work
[8] = molecular target: T1, transglutaminase 2 (TG2) (Homo sapiens, UniProt P21980); conditions: in-vitro; inhibits deamidation of 33-mer gliadin peptide (McCarville et al. 2015); cited from earlier work
T1 sequence (P21980 1-687): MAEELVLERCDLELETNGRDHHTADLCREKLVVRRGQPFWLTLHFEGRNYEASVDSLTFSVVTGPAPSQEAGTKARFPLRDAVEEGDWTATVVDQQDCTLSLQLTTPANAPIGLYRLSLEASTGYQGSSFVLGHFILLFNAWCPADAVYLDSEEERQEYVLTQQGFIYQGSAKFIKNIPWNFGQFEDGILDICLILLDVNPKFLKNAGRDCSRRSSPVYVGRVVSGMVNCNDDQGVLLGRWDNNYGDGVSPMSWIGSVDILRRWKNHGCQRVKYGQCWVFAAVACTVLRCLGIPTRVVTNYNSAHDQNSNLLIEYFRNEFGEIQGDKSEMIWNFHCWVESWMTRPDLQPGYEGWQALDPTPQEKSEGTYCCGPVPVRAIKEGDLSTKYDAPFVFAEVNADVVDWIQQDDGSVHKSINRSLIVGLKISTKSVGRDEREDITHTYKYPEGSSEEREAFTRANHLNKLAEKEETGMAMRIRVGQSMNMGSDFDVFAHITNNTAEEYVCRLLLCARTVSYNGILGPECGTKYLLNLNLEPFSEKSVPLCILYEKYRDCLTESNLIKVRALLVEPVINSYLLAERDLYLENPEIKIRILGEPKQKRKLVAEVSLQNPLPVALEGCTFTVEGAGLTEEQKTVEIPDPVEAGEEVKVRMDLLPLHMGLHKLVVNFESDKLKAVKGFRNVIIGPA

[9] = tested on: mouse model of gluten sensitivity; conditions: elafin delivered by a recombinant Lactococcus lactis (Galipeau et al., 2014); cited from earlier work

Molecule: O=C[C@H](O)[C@@H](O)[C@@H](O)[C@H](O)CO [galactose]
- production of serpin in the presence of glucose ([1]; different glucose & galactose ratios, final concentration 1%, 18 h, only when glucose is depleted during fermentation (FIG. 2)): can induce production of serpin
- serpin protein levels ([1]; grown for 8 h in MRSc base without sugar plus carbohydrate, compared to all other sugars tested (FIG. 1)): increase
- serpin protein levels ([2]; 1% galactose or 0.2% glucose & 0.8% galactose vs 1% glucose, 18 h (FIGS. 5-7)): increased in all B. longum subsp. longum strains; also recorded: significant serpin protein increase
- ability to grow on galactose as sole carbohydrate source [3]: Not all strains of B. longum subsp. longum were able to grow
- serpin induction [4]: neither induced by galactose
- serpin induction ([5]; 1% galactose): none of the B. breve ATCC 15700 (T), B. longum subsp infantis nor B. longum subsp suis strains were induced
- serpin induction [6]: neither induced by galactose

Molecule: Elafin: human serine protease inhibitor (AQEPVKGPVSTKPGSCPIILIRCAMLNPPNRCLKDTDCPGIKKCCEGSCGMACFVPQ; ends and bridges not checked; cysteine pairing not given here; UniProt P19957 61-117, looked up)
- inhibitory capacity against elastases and proteinase [7]: potent inhibitory capacity
- inhibition of transglutaminase 2 (TG2) [8]: moderately inhibits
- gluten-induced pathology and intestine inflammation [9]: reduce gluten-induced pathology and normalise intestine inflammation

B1: Papain: papain (from Worthington), previously demonstrated to induce serpin in B. breve (protein, UniProt P00784 134-345, looked up)
Papain: IPEYVDWRQKGAVTPVKNQGSCGSCWAFSAVVTIEGIIKIRTGNLNEYSEQELLDCDRRSYGCNGGYPWSALQLVAQYGIHYRNTYPYEGVQRYCRSREKGPYAAKTDGVRQVQPYNEGALLYSIANQPVSVVLEAAGKDFQLYRGGIFVGPCGNKVDHAVAAVGYGPNYILIKNSWGTGWGENGYIRIKRGTGNSYGVCGLYTSSFYPVKN
- serpin levels ([2]; 0.05 mg/ml papain on top of 1% glucose, 18 h (FIG. 7)): did not increase serpin levels
- serpin levels ([5]; 0.05 mg/ml papain on top of 1% glucose): did in the B. breve ATCC 15700 (T) strain
